Reference: patent publication US20160030438A1, “ANTI-TUMORAL COMPOSITION COMPRISING A PI3KBETA INHIBITOR AND A RAF INHIBITOR, TO OVERCOME CANCER CELLS RESISTANCE” (SANOFI, priority 2013, published 2016)

Experiments:
Type in all cases: cell-based
[1] = tested on: human melanoma cell line WM-266-4; experiment: In vitro pro-apoptotic activity (PARP cleavage western blot) in WM-266-4, example 2; conditions: 100 nM, positive control, WM-266-4, example 2
Procedure: The characterization of the interaction between compound (I) and compound (II) was studied using western blotting method measuring the expression of cleaved PARP which allows to investigate apoptosis by detecting the cleavage of the PARP protein.
(§1) The human melanoma WM-266-4 cell line was purchased at ATCC (Ref number CRL-1676 Batch 3272826). The WM-266-4 cells were cultured in RPMI1640 medium supplemented with 10% FBS and 2 mM L-Glutamine.
They were diluted following a 10 fold step dilution in DMSO in order to obtain a 1 mM solution. Then each solution at 10 mM and 1 mM was diluted 50-fold in culture medium containing 10% serum before being added onto cells with a 20-fold dilution factor to reach final concentrations of 10,000 nM and 1,000 nM. The final DMSO concentration was 0.1% in controls and in all treated wells.
WM-266-4 cells were seeded into 6-well microplates at 1 000 000 cells per well, in complete culture medium and incubated at 37° C., 5% CO2, overnight.
At the end of cell treatment period, adherent cells as well as cells in the cell culture supernatant were lysed for the preparation of the proteins. Cells were lysed in a lysis buffer containing Hepes 50 mM, NaCl 150 mM, Glycerol 10%, Triton 1%, pH=7.5, adding extemporaneously a cocktail of protease and phosphatase inhibitors diluted 100 fold. Protein concentrations in each sample were determined using microBCA technique according to manufacturer's instructions. Western blotting was performed loading 20 μg of proteins in each gel well, and according to the operating procedure. […] After western blotting revelation according to the operating procedure instructions, luminescence was read using FujiFilm (Ray Test) apparatus.
This instrument measures the total signal of luminescence obtained on Fujifilm machine (AU) for each selected band. Then, it subtracts the background value (BG) proportional to the size of the selected band or Area. The background is calculated from a band taken on the specific background of the western blot, to obtain the specific signal or (AU−BG) for each band. The calculation of the fold induction is performed for each treatment with compound or combination of compounds using the following formula:
Fold Induction=((AU−BG)t/(AU−BG)st)*100

[2] = tested on: human melanoma cell line A2058; experiment: In vitro pro-apoptotic activity (PARP cleavage western blot) in A2058, example 4
Procedure: (§2) The characterization of the interaction between compound (I) and compound (II) was studied using western blotting method which allows investigating apoptosis by detecting the cleavage of the PARP protein.
(§3) The human melanoma A2058 cell line was purchased at ATCC (Ref number CRL-11147 Batch 5074651). The A2058 cells were cultured in DMEM High glucose medium supplemented with 10% FBS and 2 mM L-Glutamine.
(§4) Cell treatment, Western Blot experiment and calculation of apoptosis fold induction were performed according to the material and method described in example 2.

[3] = tested on: human melanoma cell line WM-266-4; experiment: In vitro pro-apoptotic activity (PARP cleavage) in WM-266-4 in a concentration-dependent manner, example 5; conditions: single agent 100 nM, WM-266-4, example 5
Procedure: as §2, §1
They were diluted following two 10-fold step dilution in DMSO in order to obtain a 1 mM solution and a 0.1 mM solution Then each solution at 10 mM, 1 mM or 0.1 mM was diluted 50-fold in culture medium containing 10% serum before being added onto cells with a 20-fold dilution factor to reach final concentrations of 10,000 nM, 1,000 nM and 100 nM. The final DMSO concentration was 0.1% in controls and in all treated wells.
as §4

[4] = tested on: human melanoma cell line A2058; experiment: In vitro pro-apoptotic activity (PARP cleavage) in A2058 in a concentration-dependent manner, example 6; conditions: single agent 100 nM, A2058, example 6
Procedure: as §2, §3, §4

CC(=O)O[C@@]12CO[C@@H]1C[C@H](O)[C@@]1(C)C(=O)[C@H](O)C3=C(C)[C@@H](OC(=O)[C@H](O)[C@@H](NC(=O)OC(C)(C)C)c4ccccc4)C[C@@](O)([C@@H](OC(=O)c4ccccc4)[C@H]21)C3(C)C [Taxotere]
PARP cleavage signal (AU-BG) [1]: 2054900 AU-BG
fold induction at 0.1 µM ([1]; Homo sapiens): 2.88
PARP cleavage signal (AU-BG) ([2]; 100 nM, positive control, A2058, example 4): 3563893 AU-BG
fold induction at 0.1 µM ([2]; Homo sapiens, A2058, read-out: Fold induction of PARP cleavage): 1.66
fold induction at 0.1 µM ([3]; Homo sapiens): 1.56
PARP cleavage signal (AU-BG) [3]: 399272 AU-BG
fold induction at 0.1 µM ([4]; Homo sapiens): 6.79
PARP cleavage signal (AU-BG) [4]: 14448019 AU-BG
